Source: patent publication US8133902B2, “Ammosamides as anticancer agents” (The Regents of the University of California, priority 2007, dated 2012)
Like-named read-outs stand apart in the source and are kept apart here.

Tests used:
Type in all cases: cell-based
HCT-116 colon carcinoma = assay: in vitro cytotoxicity against HCT-116 colon carcinoma; conditions: Homo sapiens
Description: Compounds IA and IB are isolated in a pure form from a marine-derived actinomycete strain CNR698. More specifically, compound IA is obtained from the marine-derived actinomycete strain CNR698, and is the first natural product to contain a […] functionality. Compound IB is obtained from the marine-derived actinomycete strain CNR698. The actinomycete was obtained from a marine sediment. Briefly, the actinomycete, identified as a Streptomyces strain (CNR-698) was isolated from bottom sediments collected at a depth of 300 meters in the Bahamas Islands. […] Subsequent cytotoxicity-guided (HCT-116) fractionation by C18 flash chromatography and RP-HPLC led to the isolation of ammosamides A (compound IA) and B (compound IB) as dark blue and blue-purple, respectively (3 and 4 mg/L)
Accordingly, in some embodiments of the invention, compounds IA and IB are used for making pharmaceutical compositions comprising either or both of the two compounds and a pharmaceutically acceptable carrier. In addition, the pharmaceutical compositions can optionally comprise one or more additional anticancer agent(s).
Activity of probe 4 (FIG. 1) was compared to that of ammosamide A (1 on FIG. 1). […] Florescence microscopy was then used to examine the uptake of probe 4, which was concentrated within HeLa, HCT-116 and PC-3 cells within minutes (FIG. 2). The entire fluorescence from addition of 1 mL of 1 μM in […] appeared within the cell.

[1] = tested on: HeLa, HCT-116 and PC-3 cells; assay: live cell fluorescence microscopy, retention and localization; conditions: pretreatment with 1 mL DMEM containing 10 μM
Protocol: HeLa cells (ATCC CCL-2) were cultured in phenol red-free Dulbecco's modification of Eagle's medium (DMEM) with 4.5 g/L glucose, […] and 5% heat inactivated fetal calf serum (FCS) in glass-bottom dishes. The cells were synchronized using a double thymidine block. Phenol red, a common additive in DMEM, was not used during the culturing or experimentation. Fluorescent images were collected on a Nikon TE 2000 using irradiation with a mercury vapor lamp (Nikon), filtration through a dichroic filter set (FF409, Semrock) with an excitation at 377±50 nm, dichroic with >98% reflection at 344-404 nm and >98% transmission at 415-570 nm, and emission filter at 447±60 nm, focusing with an Oil Immersion Epiplan 60× objective (Zeiss), and image collection with an SPOT RT-KE color CCD Camera (Diagnostic Instruments Inc.).
The results of the study of the activity are discussed below with the reference to FIG. 2. […]
Live cell fluorescence microscopy was then conducted to detail the intracellular localization of probe 4. […]
After 12 hours of incubation, the blue fluorescence from probe 4 was vesiculated (FIG. 2d). […] In particular, the overlap of red fluorescence from the red lysosome stain, LysoTracker Red DND-99, and the blue fluorescence from probe 4 provided strong evidence in support of this observation (FIG. 2f).

HCT-116 cells = assay: cell cycle effects by FACS analysis; conditions: FIG. 3a-c, 50 μM
Protocol: The results of the study of the activity are discussed below with the reference to FIG. 3. […] Further, FIG. 3a illustrates cell cycle response for unsyncronized HCT-116 cells, FIG. 3b for HCT-116 cells synchronized and treated at G0 and incubated for 12 hours, and FIG. 3c, for HCT-116 cells synchronized and treated at S and incubated for 12 hours.
The effects of probe 4 on cell cycle were evaluated using FACS analysis.

[2] = HCT-116, read-out: cytotoxicity IC50 values
[3] = HCT-116, read-out: in vitro cytotoxicity IC50

| SMILES | IC50 (HCT-116 colon carcinoma; [2]) [nM] | IC50 (HCT-116 colon carcinoma; [3]) [nM] | effect of pretreatment on uptake of probe 4 [1] | cell cycle data relative to probe 4 (HCT-116 cells) |
| --- | --- | --- | --- | --- |
| CN1C(=S)c2cc(C(N)=O)nc3c(N)c(Cl)c(N)c1c23 [Compound IA, ammosamide A] | < 1000 | 320 | blocked the uptake of probe 4 | Comparable cell cycles data |
| CN1C(=O)c2cc(C(N)=O)nc3c(N)c(Cl)c(N)c1c23 [Compound IB, ammosamide B] | < 1000 | 320 |  |  |
